PMC4424277, “Astrocytosis precedes amyloid plaque deposition in Alzheimer APPswe transgenic mouse brain: a correlative positron emission tomography and in vitro imaging study” (European Journal of Nuclear Medicine and Molecular Imaging, 2015)
pKd: −log10 of the molar value.

Molecular target: T1, beta-amyloid (Aβ) (Homo sapiens, UniProt P05067)
T1 construct: gene APP; Aβ plaques (fibrillar deposits) in cortical homogenates of APPswe (Tg2576) mice expressing APP with the Swedish mutation
Experiment: radioligand saturation binding in APPswe mouse cortical homogenates; autoradiography

T1 sequence (P05067 18-770): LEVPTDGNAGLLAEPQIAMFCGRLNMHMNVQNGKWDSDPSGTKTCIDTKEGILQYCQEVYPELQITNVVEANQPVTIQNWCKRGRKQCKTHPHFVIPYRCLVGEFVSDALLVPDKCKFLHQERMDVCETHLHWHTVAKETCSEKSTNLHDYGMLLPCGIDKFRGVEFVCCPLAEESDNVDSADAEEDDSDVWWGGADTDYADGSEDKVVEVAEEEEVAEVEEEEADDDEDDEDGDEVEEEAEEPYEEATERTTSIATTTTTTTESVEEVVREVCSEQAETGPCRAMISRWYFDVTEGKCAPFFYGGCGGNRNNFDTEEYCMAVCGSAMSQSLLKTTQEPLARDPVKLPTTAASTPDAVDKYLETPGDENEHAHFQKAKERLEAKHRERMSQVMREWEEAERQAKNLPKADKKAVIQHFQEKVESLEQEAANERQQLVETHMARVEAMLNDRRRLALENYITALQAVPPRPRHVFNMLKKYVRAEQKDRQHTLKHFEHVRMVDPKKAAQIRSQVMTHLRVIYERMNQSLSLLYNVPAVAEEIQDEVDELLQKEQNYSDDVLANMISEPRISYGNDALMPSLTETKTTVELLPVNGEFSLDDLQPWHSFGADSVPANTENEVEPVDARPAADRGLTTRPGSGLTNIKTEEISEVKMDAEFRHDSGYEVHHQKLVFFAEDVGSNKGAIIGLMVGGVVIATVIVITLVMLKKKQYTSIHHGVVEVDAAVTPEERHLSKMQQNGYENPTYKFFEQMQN

- pKd: 7.97
SMILES: CNc1ccc(-c2nc3ccc(O)cc3s2)cn1 [AZD2184]
